Measurements from US9309238B2, “Imidazo [1,2-a]pyridine compounds, synthesis thereof, and methods of using same” (priority 2009, dated 2016).
In brackets after ≈: the same amount, converted by molar mass. Several values for one entry are separate records, joined by “and”; a condition that tells them apart may be missing. Equal entries are not always repeated. Where two headings read alike, the source gives them in different places.

Key:
M. chelonae = assay: NTM activity, M. chelonae; type: cell-based
M. marinum = assay: NTM activity, M. marinum; type: cell-based
M. avium = assay: NTM activity, M. avium; type: cell-based
M. kansasii = assay: NTM activity, M. kansasii; type: cell-based
M. bovis BCG = assay: NTM activity, M. bovis BCG; type: cell-based
H37Rv TB [1] = settings: current TB clinical candidates; cited from earlier work
MDR-TB [2] = settings: current TB clinical candidates; cited from earlier work
TB = settings: strain not stated; cited from earlier work
H37Rv TB [3] = assay: in vitro activity against H37Rv TB (MIC); type: cell-based; settings: Mycobacterium tuberculosis
MDR-TB [4] = assay: MIC against MDR-TB (Table 1); type: cell-based; settings: Mycobacterium tuberculosis
[5] = test system: VERO cells (African Green Monkey epithelial kidney cells); assay: VERO cellular toxicity assay; type: cell-based; settings: Chlorocebus sabaeus
HeLa cells = assay: toxicity to HeLa cells; type: cell-based
M. smegmatis = assay: cross screen against M. smegmatis; type: cell-based; settings: Mycolicibacterium smegmatis
[6] = test system: panel of diverse organisms (Gram-positive and Gram-negative strains, yeast, fungi, cancer cell lines, VERO cell line); assay: screen against a panel of diverse control organisms and cell lines; type: cell-based; settings: B. subtilis, S. aureus, MRSA, VRE E. faecalis, E. coli, P. aeruginosa, S. salmonicolor, C. albicans, P. notatum, Huvec, K-562, HeLa, PC-3, MCF-7, VERO
From the text: In embodiments, compounds ND-8448, ND-8451 and ND-8454 were all screened against a panel of diverse organisms which included four Gram-positive strains (Bacillus subtilis, Staphylococcus aureus, MRSA Staphylococcus aureus, VRE Enterococcus Faecalis), two Gram-negative strains (E. coli, Pseudomonas aeruginosa), a yeast (Sporobolomyces salmonicolor) and fungi (Candida albicans and Penicillium notatum), as well as five cancer cell lines (Huvec, K-562, HeLa, PC-3 and MCF-7) and the VERO cell line to check for mammalian toxicity.

[7] = Mycobacterium tuberculosis variant bovis BCG, BCG

Structure (SMILES)	MIC90 (M. chelonae) [µM]	MIC90 (M. marinum) [µM]	MIC90 (M. avium) [µM]	MIC90 (M. kansasii; M. kansasii) [µM]	MIC90 (M. bovis BCG; M. bovis BCG) [µM]	further results
CC[C@@H](CO)NCCN[C@@H](CC)CO [EMB, reference compound]	>2000	965.56 (≈ 197 µg/mL)	>2000	<7.813	<7.813	–
COc1c(N2CCNC(C)C2)c(F)cc2c(=O)c(C(=O)O)cn(C3CC3)c12 (stereo not shown) [Gatifloxacin]	–	–	–	–	–	MIC (H37Rv TB [1]): MIC = 0.03-1.56 μg/mL H37Rv TB; MIC (MDR-TB [2]): MIC = 3.12 μg/mL MDR-TB
NNC(=O)c1ccncc1 [INH, Isoniazid, reference compound]	–	–	–	–	–	MIC90 (M. chelonae; Mycobacteroides chelonae): > 500 µM; MIC90 (M. marinum; Mycobacterium marinum): > 500 µM; MIC90 (M. avium; Mycobacterium avium): > 500 µM; MIC90 (M. kansasii; Mycobacterium kansasii): 5.82 µM (≈ 0.798 µg/mL); MIC90 (M. bovis BCG; [7]): < 1.95 µM
Cc1c(CN2CCN(c3cccc(C(F)(F)F)c3)CC2)cc(-c2ccccc2)n1NC(=O)c1ccncc1 [LL-3858]	–	–	–	–	–	MIC (TB): MIC = 0.06 μg/mL
Cc1ccn2c(C(=O)NCc3ccccc3)c(C)nc2c1 [ND-8454, N-benzyl-2,7-dimethylimidazo[1,2-a]pyridine-3-carboxamide]	–	–	–	–	–	MIC (H37Rv TB [3]): 0.08 µg/mL and 0.286 µM; MIC (MDR-TB [4]): 0.02 µg/mL (≈ 0.0716 µM); IC50 [5]: > 128 µM; toxicity to HeLa cells (HeLa cells): > 50 µM; MIC90 (M. smegmatis): ≥ 5 µg/mL; MIC90 (M. chelonae; Mycobacteroides chelonae): > 50 µM; MIC90 (M. marinum; Mycobacterium marinum): > 50 µM; MIC90 (M. avium; Mycobacterium avium): 1.32 µM (≈ 0.369 µg/mL); MIC90 (M. kansasii; Mycobacterium kansasii): 1.32 µM (≈ 0.369 µg/mL); MIC90 (M. bovis BCG; [7]): 0.33 µM (≈ 0.0922 µg/mL); activity against control organisms [6]: inactive
Cc1ccn2c(C(=O)NCc3cccc(F)c3)c(C)nc2c1 [ND-9361]	–	–	–	–	–	MIC90 (M. smegmatis): ≥ 5 µg/mL
Cc1ccn2c(C(=O)NCc3ccc(Oc4ccc(F)cc4)cc3)c(C)nc2c1 [ND-9758]	6.07 (≈ 2.36 µg/mL)	5.21 (≈ 2.03 µg/mL)	<0.195	<0.195	<0.195	–
Cc1ccn2c(C(=O)NCc3cccc(OC(C)C)c3)c(C)nc2c1 [ND-9872]	>50	>50	0.71 (≈ 0.24 µg/mL)	0.71 (≈ 0.24 µg/mL)	<0.195	–
Cc1ccn2c(C(=O)NCc3ncc(C(F)(F)F)cc3Cl)c(C)nc2c1 [ND-9902]	>50	>50	4.42 (≈ 1.69 µg/mL)	4.42 (≈ 1.69 µg/mL)	0.75 (≈ 0.287 µg/mL)	–
Cc1ccc2nc(C)c(C(=O)NCc3ccc(S(C)(=O)=O)cc3)n2c1 [ND-9965]	>50	>50	6.03 (≈ 2.16 µg/mL)	6.03 (≈ 2.16 µg/mL)	0.23 (≈ 0.0822 µg/mL)	–
C[C@]1(COc2ccc(N3CCC(Oc4ccc(OC(F)(F)F)cc4)CC3)cc2)Cn2cc([N+](=O)[O-])nc2O1 [OPC-67683]	–	–	–	–	–	MIC (H37Rv TB [1]): MIC of 0.006-0.024 μg/mL; MIC (MDR-TB [2]): MIC of 0.006-0.024 μg/mL
COc1nc2ccc(Br)cc2cc1[C@@H](c1ccccc1)[C@@](O)(CCN(C)C)c1cccc2ccccc12 [TMC207]	–	–	–	–	–	MIC (H37Rv TB [1]): MIC = 0.06 μg/mL vs. H37Rv and MDR-TB; MIC (MDR-TB [2]): MIC = 0.06 μg/mL vs. H37Rv and MDR-TB
